Where two headings read alike, the source gives them in different places.
What was measured:
Agam\Orco + Agam\Or65 [1] = assay: Odorant and Orco agonist concentration-response, two-electrode voltage clamp in Xenopus oocytes; type: cell-based
Procedure: (§1) Follicle cells were removed by treatment with collagenase B (Boehringer Mannheim) for 2 hours at room temperature. Capped cRNA encoding each OR subunit was generated using mMessage mMachine kits (Ambion). For heteromeric ORs, 25 ng of cRNA encoding each OR subunit was injected into Stage V-VI Xenopus oocytes. For expression of Orco homomers, 50 ng of cRNA was injected. Oocytes were incubated at 18°C in Barth's saline (in mM: 88 NaCl, 1 KCl, 2.4 NaHCO 3, 0.3 CaNO 3, 0.41 CaCl 2, 0.82 MgSO 4, 15 HEPES, pH 7.6, and 150µg/ml ceftazidime) for 2–5 days prior to electrophysiological recording.
(§2) Odorant and Orco ligand induced currents were recorded under two-electrode voltage clamp, using an automated parallel electrophysiology system (OpusExpress 6000A, Molecular Devices). Oocytes were perfused with ND96 (in mM: 96 NaCl, 2 KCl, 1 CaCl 2, 1 MgCl 2, 5 HEPES, pH 7.5). Orco ligands were prepared as 50 or 100 mM stock solutions in DMSO and then diluted into ND96 on the day of the experiment. Odorants were prepared as 100 mM stock solutions in DMSO and then diluted into ND96. Unless otherwise noted, applications were for 60 sec at a flow rate of 1.0 ml/min, with extensive washing in ND96 at 4.6 ml/min between applications. Micropipettes were filled with 3 M KCl and had resistances of 0.2–2.0 MΩ. The holding potential was -70 mV. Current responses, filtered (4-pole, Bessel, low pass) at 20 Hz (-3 db) and sampled at 100 Hz, were captured and stored using OpusXpress 1.1 software (Molecular Devices).
(§3) To screen for agonist activity, oocytes were exposed to 30 sec applications of candidate compounds with 5 min washes between applications ( Figure 2A). For the concentration-response protocol ( Table 1), applications were for 20 sec at a flow rate of 1.65 ml/min. To measure antagonist activity at Orco ( Figure 2B, 2C, Figure 3, Figure 4A and Figure 5A), oocytes were exposed to two 60 sec applications of the synthetic Orco agonist OLC12 (2-((4-Ethyl-5-(4-pyridinyl)-4H-1,2,4-triazol-3-yl)sulfanyl)-N-(4-isopropylphenyl)acetamide) with 4 min washes between applications. Oocytes were then exposed to a 90 sec application of antagonist candidate, immediately followed by a 60 sec co-application of antagonist candidate and OLC12. The current response in the presence of antagonist candidate was compared to the mean of the preceding two responses to OLC12 alone and is presented as a percentage.
(§4) Initial analysis of electrophysiological data was done using Clampfit 9.1 software (Molecular Devices). Curve fitting and statistical analyses were done using Prism 5 (Graphpad). Concentration-inhibition data were fit to the equation: I = I max/(1+ (X/IC 50) ^n) where I represents the current response at a given concentration of inhibitor, X; I max is the maximal response in the absence of inhibitor; IC 50 is the concentration of inhibitor present that still allows a half maximal response from odorant; n is the apparent Hill coefficient. Concentration-response data were fit to the equation: I = I max/(1+(EC 50/X) ^n) where I represents the current response at a given concentration of odorant, X; I max is the maximal response; EC 50 is the concentration of agonist yielding a half maximal response; n is the apparent Hill coefficient. Statistical significance (p<0.05) was assessed using a two-tailed unpaired t test, an F test, or a one-way analysis of variance followed by the Dunnett's post-test, as appropriate.

Agam\Orco + Agam\Or31 = assay: Odorant concentration-response, two-electrode voltage clamp in Xenopus oocytes; type: cell-based, Anopheles gambiae
Procedure: as §1, §2
To screen for agonist activity, oocytes were exposed to 30 sec applications of candidate compounds with 5 min washes between applications ( Figure 2A). For the concentration-response protocol ( Table 1), applications were for 20 sec at a flow rate of 1.65 ml/min. […]
Initial analysis of electrophysiological data was done using Clampfit 9.1 software (Molecular Devices). […] Statistical significance (p<0.05) was assessed using a two-tailed unpaired t test, an F test, or a one-way analysis of variance followed by the Dunnett's post-test, as appropriate.

Cqui\Orco [2] = target: T1, Cqui\Orco (Culex quinquefasciatus, UniProt Q309I4); assay: Antagonism of OLC12 activation of Orco in Xenopus oocytes; type: cell-based; settings: for inhibition at 100 µM: read-out: inhibition of the OLC12 response
Procedure: as §1, §2, §3, §4

Agam\Orco = target: T2, Agam\Orco (Anopheles gambiae, UniProt Q7QCC7); assay: Agonist concentration-response, two-electrode voltage clamp in Xenopus oocytes; type: cell-based
T2 sequence (Q7QCC7 1-478): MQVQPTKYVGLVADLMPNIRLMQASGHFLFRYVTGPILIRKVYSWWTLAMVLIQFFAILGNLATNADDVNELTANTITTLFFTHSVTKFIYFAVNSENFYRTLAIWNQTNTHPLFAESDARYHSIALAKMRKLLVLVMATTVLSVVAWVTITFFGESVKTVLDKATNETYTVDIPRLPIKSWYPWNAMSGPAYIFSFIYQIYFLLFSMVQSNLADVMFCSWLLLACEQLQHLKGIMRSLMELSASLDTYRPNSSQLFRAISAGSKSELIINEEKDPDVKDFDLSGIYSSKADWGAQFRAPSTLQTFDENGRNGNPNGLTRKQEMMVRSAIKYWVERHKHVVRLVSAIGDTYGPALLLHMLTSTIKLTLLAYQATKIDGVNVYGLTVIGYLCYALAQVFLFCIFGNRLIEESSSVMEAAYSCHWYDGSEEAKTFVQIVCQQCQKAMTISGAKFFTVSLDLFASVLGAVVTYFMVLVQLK
Procedure: as §1, §2, §3, §4

Cqui\Orco [3] = target: T1, Cqui\Orco; assay: as above; type: cell-based
Procedure: as §1, §2, §3, §4

Onub\Orco + Onub\Or6 = Onub\Orco + Onub\Or6 (Ostrinia nubilalis, UniProt D3J5H5); assay: as above; type: cell-based
Procedure: as §1, §2, §3, §4

Dmel\Orco = target: T3, Dmel\Orco (Drosophila melanogaster, UniProt Q9VNB5); assay: as above; type: cell-based
T3 sequence (Q9VNB5 1-486): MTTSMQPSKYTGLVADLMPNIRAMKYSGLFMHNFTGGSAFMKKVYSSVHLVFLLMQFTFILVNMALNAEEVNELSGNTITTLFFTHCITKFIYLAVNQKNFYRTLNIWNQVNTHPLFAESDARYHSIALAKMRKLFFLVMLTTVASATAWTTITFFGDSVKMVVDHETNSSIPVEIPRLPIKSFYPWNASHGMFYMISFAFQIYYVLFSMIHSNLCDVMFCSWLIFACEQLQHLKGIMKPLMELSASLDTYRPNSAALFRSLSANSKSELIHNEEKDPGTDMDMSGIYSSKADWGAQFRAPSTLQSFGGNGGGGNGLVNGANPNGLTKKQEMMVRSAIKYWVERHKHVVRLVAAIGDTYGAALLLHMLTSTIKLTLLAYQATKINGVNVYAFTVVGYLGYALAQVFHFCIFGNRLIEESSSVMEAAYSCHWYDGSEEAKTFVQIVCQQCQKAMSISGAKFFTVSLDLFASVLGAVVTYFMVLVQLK
Procedure: as §1, §2, §3, §4

Dmel\Orco + Dmel\Or35a = target: T4, Dmel\Orco + Dmel\Or35a (Drosophila melanogaster, UniProt Q9VNB5); assay: as above; type: cell-based
T4 sequence (Q9VNB5 1-486): T3 sequence (Q9VNB5 1-486)
T4 sequence (Q9V3Q2 1-409 partner): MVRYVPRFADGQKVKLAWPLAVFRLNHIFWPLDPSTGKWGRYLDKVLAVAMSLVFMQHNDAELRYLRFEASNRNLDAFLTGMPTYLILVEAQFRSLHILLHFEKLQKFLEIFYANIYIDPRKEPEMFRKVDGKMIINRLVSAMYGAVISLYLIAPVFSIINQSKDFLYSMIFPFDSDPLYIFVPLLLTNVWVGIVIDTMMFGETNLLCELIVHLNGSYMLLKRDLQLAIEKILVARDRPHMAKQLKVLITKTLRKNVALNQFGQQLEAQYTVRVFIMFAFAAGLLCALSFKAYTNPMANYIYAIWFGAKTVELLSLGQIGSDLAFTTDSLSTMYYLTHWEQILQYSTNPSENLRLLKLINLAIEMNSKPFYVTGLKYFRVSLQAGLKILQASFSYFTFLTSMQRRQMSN
Procedure: as §1, §2, §3, §4

Agam\Orco + Agam\Or65 [4] = target: T5, Agam\Orco + Agam\Or65 (Anopheles gambiae, UniProt Q7QCC7); assay: Odorant and Orco agonist concentration-response, two-electrode voltage clamp in Xenopus oocytes; type: cell-based
T5 sequence (Q7QCC7 1-478): T2 sequence (Q7QCC7 1-478)
Procedure: as §1, §2, §3, §4

[5] = normalizing conc. 30µM geranyl acetate
[6] = Cqui\Orco activated by 30µM OLC12 (~EC5), 100µM of each amine, mean ± SEM, n = 3-10

T1 sequence (Q309I4 entry or part of it): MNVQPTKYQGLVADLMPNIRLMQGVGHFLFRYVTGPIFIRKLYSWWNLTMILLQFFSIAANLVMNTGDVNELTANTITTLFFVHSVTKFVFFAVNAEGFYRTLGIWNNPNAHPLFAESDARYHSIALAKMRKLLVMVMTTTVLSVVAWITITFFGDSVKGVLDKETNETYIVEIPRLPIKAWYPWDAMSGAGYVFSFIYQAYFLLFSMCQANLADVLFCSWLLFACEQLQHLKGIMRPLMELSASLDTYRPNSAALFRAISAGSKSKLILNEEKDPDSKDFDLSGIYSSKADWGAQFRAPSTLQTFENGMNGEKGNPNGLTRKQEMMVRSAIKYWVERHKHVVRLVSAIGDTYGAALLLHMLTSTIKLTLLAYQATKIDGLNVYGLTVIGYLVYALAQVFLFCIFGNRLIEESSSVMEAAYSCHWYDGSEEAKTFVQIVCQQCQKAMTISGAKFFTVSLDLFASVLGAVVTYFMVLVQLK
Onub\Orco + Onub\Or6, sequence (D3J5H9 entry or part of it): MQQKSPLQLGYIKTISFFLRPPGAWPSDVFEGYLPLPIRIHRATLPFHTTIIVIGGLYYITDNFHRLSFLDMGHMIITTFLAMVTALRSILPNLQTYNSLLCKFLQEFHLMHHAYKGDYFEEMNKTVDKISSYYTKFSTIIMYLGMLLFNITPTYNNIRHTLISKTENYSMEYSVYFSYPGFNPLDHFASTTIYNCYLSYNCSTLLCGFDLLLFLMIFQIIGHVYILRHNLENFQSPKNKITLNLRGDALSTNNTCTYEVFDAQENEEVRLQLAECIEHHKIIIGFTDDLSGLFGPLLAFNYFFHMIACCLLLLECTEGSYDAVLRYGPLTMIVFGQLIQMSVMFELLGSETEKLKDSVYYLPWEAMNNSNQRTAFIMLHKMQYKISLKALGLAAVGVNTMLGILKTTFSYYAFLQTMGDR
Onub\Orco + Onub\Or6, sequence (D3J5H5 entry or part of it): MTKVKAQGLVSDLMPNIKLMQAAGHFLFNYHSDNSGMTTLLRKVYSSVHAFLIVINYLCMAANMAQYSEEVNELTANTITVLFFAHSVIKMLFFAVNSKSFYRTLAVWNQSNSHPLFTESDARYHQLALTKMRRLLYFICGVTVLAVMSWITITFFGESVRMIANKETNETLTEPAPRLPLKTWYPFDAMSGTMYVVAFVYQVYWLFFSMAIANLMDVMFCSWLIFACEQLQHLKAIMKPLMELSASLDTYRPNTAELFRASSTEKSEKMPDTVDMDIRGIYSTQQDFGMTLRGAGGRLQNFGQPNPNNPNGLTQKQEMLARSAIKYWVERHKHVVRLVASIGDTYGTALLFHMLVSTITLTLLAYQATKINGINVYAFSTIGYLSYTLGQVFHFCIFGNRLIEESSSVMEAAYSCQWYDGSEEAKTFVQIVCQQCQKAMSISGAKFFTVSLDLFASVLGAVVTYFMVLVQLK

SMILES: C=CCc1ccc(O)c(OC)c1 [Eugenol, eugenol]
- Fit Max (Agam\Orco + Agam\Or65 [1]; normalized to 1µM eugenol): 1.0 ± 0.03
- EC50 (Agam\Orco + Agam\Or65 [1]; normalizing conc. 1µM eugenol): 80 ± 10 nM
- n H (apparent Hill coefficient) (Agam\Orco + Agam\Or65 [1]; normalizing conc. 1µM eugenol): 0.9 ± 0.1

SMILES: CC(=O)OC/C=C(\C)CCC=C(C)C [Geranyl Acetate, geranyl acetate]
- Fit Max (Agam\Orco + Agam\Or31; normalized to 30µM geranyl acetate): 2.9 ± 0.3
- EC50 (Agam\Orco + Agam\Or31; [5]): 65 ± 23 µM
- n H (apparent Hill coefficient) (Agam\Orco + Agam\Or31; [5]): 1.0 ± 0.3

SMILES: NCCc1c[nH]cn1 [Histamine, histamine]
- inhibition at 100 µM (Cqui\Orco [2]): 16 ± 8%

SMILES: CCn1c(SCC(=O)Nc2ccc(C(C)C)cc2)nnc1-c1ccncc1 [OLC12, 2-((4-Ethyl-5-(4-pyridinyl)-4H-1,2,4-triazol-3-yl)sulfanyl)-N-(4-isopropylphenyl)acetamide]
- Fit Max (Agam\Orco; normalized to 30µM OLC12): 47 ± 2
- n H (apparent Hill coefficient) (Agam\Orco; normalizing conc. 30µM OLC12): 2.4 ± 0.3
- EC50 (Agam\Orco; normalizing conc. 30µM OLC12, mean ± SEM): 124 ± 9 µM
- Fit Max (Cqui\Orco [3]; normalized to 30µM OLC12): 48 ± 2
- EC50 (Cqui\Orco [3]; normalizing conc. 30µM OLC12): 95 ± 6 µM
- n H (apparent Hill coefficient) (Cqui\Orco [3]; normalizing conc. 30µM OLC12): 2.5 ± 0.3
- EC50 (Onub\Orco + Onub\Or6): 100 ± 4 µM
- Fit Max (Onub\Orco + Onub\Or6; Onub\Orco + Onub\Or6, normalized to 100µM OLC12): 2.0 ± 0.1
- n H (apparent Hill coefficient) (Onub\Orco + Onub\Or6; Onub\Orco + Onub\Or6, normalizing conc. 100µM OLC12): 2.1 ± 0.2
- Fit Max (Dmel\Orco; normalized to 10µM OLC12): 36 ± 4
- EC50 (Dmel\Orco; normalizing conc. 10µM OLC12): 36 ± 4 µM
- n H (apparent Hill coefficient) (Dmel\Orco; normalizing conc. 10µM OLC12): 3.9 ± 1.9
- Fit Max (Dmel\Orco + Dmel\Or35a; normalized to 10µM OLC12): 4.7 ± 0.4
- EC50 (Dmel\Orco + Dmel\Or35a; normalizing conc. 10µM OLC12): 20 ± 5 µM
- n H (apparent Hill coefficient) (Dmel\Orco + Dmel\Or35a; normalizing conc. 10µM OLC12): 1.9 ± 0.8
- Fit Max (Agam\Orco + Agam\Or65 [4]; normalized to 30µM OLC12): 5.7 ± 0.3
- EC50 (Agam\Orco + Agam\Or65 [4]; normalizing conc. 30µM OLC12): 67 ± 6 µM
- n H (apparent Hill coefficient) (Agam\Orco + Agam\Or65 [4]; normalizing conc. 30µM OLC12): 2.0 ± 0.3

SMILES: NCC(O)c1ccc(O)cc1 (centres unmarked) [Octopamine, octopamine]
- inhibition of the OLC12 response (Cqui\Orco [2]; [6]): inactive

SMILES: NCCc1ccc(O)c(O)c1 [dopamine]
- inhibition of the OLC12 response (Cqui\Orco [2]): inactive

SMILES: CNC[C@H](O)c1ccc(O)c(O)c1 [epinephrine]
- inhibition at 100 µM (Cqui\Orco [2]): 9 ± 3%

SMILES: CN(C)Cc1c[nH]c2ccccc12 [gramine]
- inhibition at 100 µM (Cqui\Orco [2]; [6]): 30 ± 4%

SMILES: COc1ccc2[nH]cc(CCNC(C)=O)c2c1 [melatonin]
- inhibition at 100 µM (Cqui\Orco [2]; [6]): 13 ± 1%

SMILES: NC[C@H](O)c1ccc(O)c(O)c1 [norepinephrine]
- inhibition of the OLC12 response (Cqui\Orco [2]; [6]): inactive

SMILES: NCCc1ccccc1 [phenethylamine]
- IC50 (Cqui\Orco [2]): 117 ± 12 µM
- less potent than tryptamine (IC50 ratio) (Cqui\Orco [2]; Cqui\Orco activated by 30µM OLC12): 25 fold
- inhibition at 100 µM (Cqui\Orco [2]; [6]): 41 ± 1%

SMILES: NCCc1c[nH]c2ccc(O)cc12 [serotonin]
- inhibition at 100 µM (Cqui\Orco [2]; [6]): 23 ± 3%

Reference: publication PMC4097363, “Trace amines inhibit insect odorant receptor function through antagonism of the co-receptor subunit” (F1000Research, 2014)
